Activity calls are given as the source filed them. No rule for the calls is given here.
Test system: CCRIS mutagenicity, Ames/micronucleus/aberration tests
Experiment: CCRIS mutagenicity studies

With `S=c1nc[nH]c2nc[nH]c12` the mutagenic call (End Point: IN VITRO MICRONUCLEUS, Test System: CHL/IU CELLS, Metabolic Activation: NONE) was “active; positive”, the mutagenic call (End Point: IN VITRO MICRONUCLEUS, Test System: CHO CELLS, Metabolic Activation: RAT, LIVER, S-9, AROCLOR 1254) was “inactive; negative” and the mutagenic call (Test System: AMES SALMONELLA TYPHIMURIUM, Strain/Indicator: TA97, Metabolic Activation: HAMSTER, LIVER, S-9, AROCLOR 1254 (30%), Method: PREINCUBATION) was “inactive; negative”. The mutagenic call (Test System: AMES SALMONELLA TYPHIMURIUM, Strain/Indicator: TA97, Metabolic Activation: NONE, Method: PREINCUBATION) was “inactive; negative”, the mutagenic call (Test System: AMES SALMONELLA TYPHIMURIUM, Strain/Indicator: TA97, Metabolic Activation: NONE, Method: STANDARD PLATE) was “inactive; negative” and the mutagenic call (Test System: AMES SALMONELLA TYPHIMURIUM, Strain/Indicator: TA97, Metabolic Activation: RAT, LIVER, S-9, AROCLOR 1254 (30%), Method: PREINCUBATION) was “inactive; negative”. The mutagenic call (Test System: AMES SALMONELLA TYPHIMURIUM, Strain/Indicator: TA97, Metabolic Activation: RAT, LIVER, S-9, PHENOBARBITAL AND ALPHA-NAPHTHOFLAVONE, Method: STANDARD PLATE) was “inactive; negative”, the mutagenic call (Test System: AMES SALMONELLA TYPHIMURIUM, Strain/Indicator: TA98, Metabolic Activation: HAMSTER, LIVER, S-9, AROCLOR 1254 (30%), Method: PREINCUBATION) was “inactive; negative” and the mutagenic call (Test System: AMES SALMONELLA TYPHIMURIUM, Strain/Indicator: TA98, Metabolic Activation: NONE, Method: PREINCUBATION) was “inactive; negative”. The mutagenic call (Test System: AMES SALMONELLA TYPHIMURIUM, Strain/Indicator: TA98, Metabolic Activation: NONE, Method: SPIRAL ASSAY) was “inactive; negative”, the mutagenic call (Test System: AMES SALMONELLA TYPHIMURIUM, Strain/Indicator: TA98, Metabolic Activation: NONE, Method: STANDARD PLATE) was “inactive; negative” and the mutagenic call (Test System: AMES SALMONELLA TYPHIMURIUM, Strain/Indicator: TA98, Metabolic Activation: RAT, LIVER, S-9, AROCLOR 1254 (30%), Method: PREINCUBATION) was “inactive; negative”. The mutagenic call (Test System: AMES SALMONELLA TYPHIMURIUM, Strain/Indicator: TA98, Metabolic Activation: RAT, LIVER, S-9, AROCLOR 1254, Method: SPIRAL ASSAY) was “inactive; negative”, the mutagenic call (Test System: AMES SALMONELLA TYPHIMURIUM, Strain/Indicator: TA98, Metabolic Activation: RAT, LIVER, S-9, AROCLOR 1254, Method: STANDARD PLATE) was “inactive; negative” and the mutagenic call (Test System: AMES SALMONELLA TYPHIMURIUM, Strain/Indicator: TA98, Metabolic Activation: RAT, LIVER, S-9, PHENOBARBITAL AND ALPHA-NAPHTHOFLAVONE, Method: STANDARD PLATE) was “inactive; negative”. For the same compound, the mutagenic call (Test System: AMES SALMONELLA TYPHIMURIUM, Strain/Indicator: TA100, Metabolic Activation: HAMSTER, LIVER, S-9, AROCLOR 1254 (30%), Method: PREINCUBATION) was “inactive; negative”, the mutagenic call (Test System: AMES SALMONELLA TYPHIMURIUM, Strain/Indicator: TA100, Metabolic Activation: NONE, Method: PREINCUBATION) was “inactive; negative” and the mutagenic call (Test System: AMES SALMONELLA TYPHIMURIUM, Strain/Indicator: TA100, Metabolic Activation: NONE, Method: SPIRAL ASSAY) was “inactive; negative”. For the same compound, the mutagenic call (Test System: AMES SALMONELLA TYPHIMURIUM, Strain/Indicator: TA100, Metabolic Activation: RAT, LIVER, S-9, AROCLOR 1254 (30%), Method: PREINCUBATION) was “inactive; negative”, the mutagenic call (Test System: AMES SALMONELLA TYPHIMURIUM, Strain/Indicator: TA100, Metabolic Activation: RAT, LIVER, S-9, AROCLOR 1254, Method: SPIRAL ASSAY) was “inactive; negative” and the mutagenic call (Test System: AMES SALMONELLA TYPHIMURIUM, Strain/Indicator: TA100, Metabolic Activation: RAT, LIVER, S-9, AROCLOR 1254, Method: STANDARD PLATE) was “inactive; negative”. For the same compound, the mutagenic call (Test System: AMES SALMONELLA TYPHIMURIUM, Strain/Indicator: TA100, Metabolic Activation: RAT, LIVER, S-9, PHENOBARBITAL AND ALPHA-NAPHTHOFLAVONE, Method: STANDARD PLATE) was “inactive; negative”, the mutagenic call (Test System: AMES SALMONELLA TYPHIMURIUM, Strain/Indicator: TA102, Metabolic Activation: NONE, Method: STANDARD PLATE) was “inactive; negative” and the mutagenic call (Test System: AMES SALMONELLA TYPHIMURIUM, Strain/Indicator: TA1535, Metabolic Activation: HAMSTER, LIVER, S-9, AROCLOR 1254 (30%), Method: PREINCUBATION) was “active; positive”. The mutagenic call (Test System: AMES SALMONELLA TYPHIMURIUM, Strain/Indicator: TA1535, Metabolic Activation: NONE, Method: PREINCUBATION) was “active; positive”, the mutagenic call (Test System: AMES SALMONELLA TYPHIMURIUM, Strain/Indicator: TA1535, Metabolic Activation: NONE, Method: SPIRAL ASSAY) was “active; positive” and the mutagenic call (Test System: AMES SALMONELLA TYPHIMURIUM, Strain/Indicator: TA1535, Metabolic Activation: NONE, Method: STANDARD PLATE) was “active; positive”. The mutagenic call (Test System: AMES SALMONELLA TYPHIMURIUM, Strain/Indicator: TA1535, Metabolic Activation: RAT, LIVER, S-9, AROCLOR 1254 (30%), Method: PREINCUBATION) was “active; positive”, the mutagenic call (Test System: AMES SALMONELLA TYPHIMURIUM, Strain/Indicator: TA1535, Metabolic Activation: RAT, LIVER, S-9, AROCLOR 1254, Method: SPIRAL ASSAY) was “active; positive” and the mutagenic call (Test System: AMES SALMONELLA TYPHIMURIUM, Strain/Indicator: TA1535, Metabolic Activation: RAT, LIVER, S-9, AROCLOR 1254, Method: STANDARD PLATE) was “active; positive”. For the same compound, the mutagenic call (Test System: AMES SALMONELLA TYPHIMURIUM, Strain/Indicator: TA1535, Metabolic Activation: RAT, LIVER, S-9, PHENOBARBITAL AND ALPHA-NAPHTHOFLAVONE, Method: STANDARD PLATE) was “active; positive”, the mutagenic call (Test System: AMES SALMONELLA TYPHIMURIUM, Strain/Indicator: TA1537, Metabolic Activation: NONE, Method: SPIRAL ASSAY) was “inactive; negative” and the mutagenic call (Test System: AMES SALMONELLA TYPHIMURIUM, Strain/Indicator: TA1537, Metabolic Activation: NONE, Method: STANDARD PLATE) was “inactive; negative”. The mutagenic call (Test System: AMES SALMONELLA TYPHIMURIUM, Strain/Indicator: TA1537, Metabolic Activation: RAT, LIVER, S-9, AROCLOR 1254, Method: SPIRAL ASSAY) was “inactive; negative”, the mutagenic call (Test System: AMES SALMONELLA TYPHIMURIUM, Strain/Indicator: TA1537, Metabolic Activation: RAT, LIVER, S-9, AROCLOR 1254, Method: STANDARD PLATE) was “inactive; negative” and the mutagenic call (Test System: CHINESE HAMSTER V-79, Strain/Indicator: V-79/6-THIOGUANINE, Metabolic Activation: NONE, Method: SUSPENSION/PLATE) was “active; positive”. For the same compound, the mutagenic call (Test System: CHINESE HAMSTER V-79, Strain/Indicator: V-79/6-THIOGUANINE, Metabolic Activation: RAT, LIVER, HEPATOCYTES, Method: SUSPENSION/PLATE) was “active; positive”, the mutagenic call (Test System: E. COLI, Strain/Indicator: WP2 (HCR), Metabolic Activation: NONE, Method: STANDARD PLATE) was “inactive; negative” and the mutagenic call (Test System: UDS RAT HEPATOCYTES, Strain/Indicator: THY INCORP, Metabolic Activation: NONE, Method: AUTORADIOGRAPHY (SERUM-FREE MEDIA)) was “inactive; negative”.

For `O=[N+]([O-])c1ccc2c3c(ccc([N+](=O)[O-])c13)-c1ccccc1-2`, the mutagenic call (Test System: AMES SALMONELLA TYPHIMURIUM, Strain/Indicator: TA97, Metabolic Activation: NONE) was “active; positive”, the mutagenic call (Test System: AMES SALMONELLA TYPHIMURIUM, Strain/Indicator: TA98(1,8-DNP6), Metabolic Activation: NONE) was “active; positive” and the mutagenic call (Test System: AMES SALMONELLA TYPHIMURIUM, Strain/Indicator: TA98(NR), Metabolic Activation: NONE) was “active; positive”. The mutagenic call (Test System: AMES SALMONELLA TYPHIMURIUM, Strain/Indicator: TA98, Metabolic Activation: NONE) was “active; positive”, the mutagenic call (Test System: AMES SALMONELLA TYPHIMURIUM, Strain/Indicator: TA100, Metabolic Activation: NONE) was “active; positive” and the mutagenic call (Test System: AMES SALMONELLA TYPHIMURIUM, Strain/Indicator: TA1535, Metabolic Activation: NONE) was “inactive; negative”. The mutagenic call (Test System: AMES SALMONELLA TYPHIMURIUM, Strain/Indicator: TA1537, Metabolic Activation: NONE) was “active; positive”, the mutagenic call (Test System: AMES SALMONELLA TYPHIMURIUM, Strain/Indicator: TA1538, Metabolic Activation: NONE) was “active; positive” and the mutagenic call (Test System: AMES SALMONELLA TYPHIMURIUM, Strain/Indicator: TA1978, Metabolic Activation: NONE) was “inactive; negative”.

Source: PubChem BioAssay AID1259407 (Chemical Carcinogenesis Research Information System (CCRIS), 2018)
